This passage reports IC50, ED50 and Relative potency results from ChEMBL document CHEMBL1129853, “Design and biological evaluation of a series of thiophene-based 3-hydroxy-3-methylglutaryl coenzyme a reductase inhibitors” (Bioorg Med Chem Lett, 1997).

What is called IC50 is the concentration at which inhibition is half-maximal. High values mean weaker potency in that assay, low ones greater potency in that assay. What is called ED50 is the midpoint of the dose-response relation. A high value points to a need for a large dose.

Assay [1] deals with T1, 3-hydroxy-3-methylglutaryl-coenzyme A reductase (Rattus norvegicus, UniProt P51639).
T1 sequence (P51639 whole entry): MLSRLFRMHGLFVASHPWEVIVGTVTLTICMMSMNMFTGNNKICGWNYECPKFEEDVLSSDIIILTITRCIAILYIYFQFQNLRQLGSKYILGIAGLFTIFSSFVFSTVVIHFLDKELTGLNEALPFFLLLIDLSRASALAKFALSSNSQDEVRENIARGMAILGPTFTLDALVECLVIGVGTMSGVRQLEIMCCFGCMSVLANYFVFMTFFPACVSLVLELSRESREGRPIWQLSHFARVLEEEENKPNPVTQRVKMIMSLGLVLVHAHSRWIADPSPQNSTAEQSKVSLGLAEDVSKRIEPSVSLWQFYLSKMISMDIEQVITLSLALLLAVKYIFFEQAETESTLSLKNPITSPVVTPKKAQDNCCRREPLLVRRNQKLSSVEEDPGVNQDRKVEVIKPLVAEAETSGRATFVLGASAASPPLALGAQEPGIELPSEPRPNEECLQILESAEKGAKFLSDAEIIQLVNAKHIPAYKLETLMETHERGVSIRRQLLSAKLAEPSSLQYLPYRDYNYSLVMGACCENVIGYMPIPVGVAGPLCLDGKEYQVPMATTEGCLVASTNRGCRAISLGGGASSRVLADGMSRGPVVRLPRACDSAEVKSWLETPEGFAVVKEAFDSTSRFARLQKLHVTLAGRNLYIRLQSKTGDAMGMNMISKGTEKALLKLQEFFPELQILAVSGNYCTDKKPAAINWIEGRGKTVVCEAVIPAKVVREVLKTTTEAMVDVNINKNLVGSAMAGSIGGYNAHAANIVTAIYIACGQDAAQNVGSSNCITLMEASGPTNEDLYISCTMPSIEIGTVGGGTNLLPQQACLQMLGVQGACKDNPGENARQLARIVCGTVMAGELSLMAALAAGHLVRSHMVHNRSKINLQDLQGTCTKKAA
The experiment in a line: Tested in vitro for the HMG-CoA reductase inhibitory activity in a microsomal preparation. In kind it is microsomes, Microsome.

In assay [2] the test system is Rattus norvegicus. The experiment in a line: Tested in vivo for the concentration required to produce 50% inhibition of the incorporation of [14C]acetate into cholesterol. In kind it is functional.
Assay [3] deals with T2, 3-hydroxy-3-methylglutaryl-coenzyme A reductase (Rattus norvegicus) (UniProt P51639).
T2 sequence (whole entry): T1 sequence (P51639 whole entry)
The experiment in a line: Tested in vitro for relative potency against HMG-CoA reductase in a microsomal preparation (relative to compactin =1). In kind it is microsomes. The settings on record: Microsome.

The subject of assay [4] is Rattus norvegicus. Description: Tested in vivo for the concentration required to produce relative potency of the incorporation of [14C]acetate into cholesterol (relative to compactin=1). In kind it is functional.

In the case of `CC[C@H](C)C(=O)O[C@H]1C[C@@H](C)C=C2C=C[C@H](C)[C@H](CC[C@@H]3C[C@@H](O)CC(=O)O3)[C@H]21` [LOVASTATIN], the IC50 in assay [1] came to 530 nM. Further, in the assay with Rattus norvegicus [2], the ED50 was 0.38 mg/kg. In addition, the figures for the Relative potency (in assay [3]; with Rattus norvegicus [4]) were 2.2 and 11, respectively.
The compound `CCCCCCCCc1sc(C(C)C)c(/C=C/[C@@H](O)C[C@@H](O)CC(=O)O)c1-c1ccc(F)cc1` showed an IC50 in assay [1] above 10000 nM. The compound further returned a Relative potency in assay [3] below 0.1.
`CC(C)c1sc(-c2ccccc2)c(-c2ccccc2)c1/C=C/[C@@H](O)C[C@@H](O)CC(=O)[O-].[Na+]`: in assay [1], the IC50 was 26 nM. The ED50 in the assay with Rattus norvegicus [2] is 0.17 mg/kg. Moreover, the values for the Relative potency (in assay [3]; with Rattus norvegicus [4]) were 44 and 24, respectively.
`CC(C)c1sc(CO)c(-c2ccc(F)cc2)c1/C=C/[C@@H](O)C[C@@H](O)CC(=O)O`: the IC50 in assay [1] was determined as 325 nM. The same compound returned a Relative potency in assay [3] of 4.
`COCCOCc1sc(C(C)C)c(/C=C/[C@@H](O)C[C@@H](O)CC(=O)O)c1-c1ccc(F)cc1`: in assay [1], it took 206 nM to reach half-maximal inhibition (IC50). For the same compound, the Relative potency in assay [3] was found to be 5.6.
The compound `CC(C)c1sc(C2CCCC2)c(-c2ccc(F)cc2)c1/C=C/[C@@H](O)C[C@@H](O)CC(=O)O` yielded an IC50 in assay [1] of 570 nM. Further, the Relative potency in assay [3] stood at 2.
Regarding `CC(C)c1sc(-c2ccccc2)c(C2CCCC2)c1/C=C/[C@@H](O)C[C@@H](O)CC(=O)O`, in assay [1], the IC50 came to 417 nM. The compound also showed a Relative potency in assay [3] of 2.8.
Regarding `Cc1ccc(-c2sc(C(C)C)c(/C=C/[C@@H](O)C[C@@H](O)CC(=O)[O-])c2-c2ccc(F)cc2)cc1.[Na+]`, in assay [1], half-maximal inhibition (IC50) required 9.7 nM. Besides, the ED50 with Rattus norvegicus [2] is 0.32 mg/kg. Besides, the figures for the Relative potency (in assay [3]; in the assay with Rattus norvegicus [4]) were 119 and 13, respectively.
`CC(C)c1sc(-c2ccccc2)c(-c2ccc(-c3ccccc3)cc2)c1/C=C/[C@@H](O)C[C@@H](O)CC(=O)O` had an IC50 in assay [1] above 10000 nM. The same compound gave a Relative potency in assay [3] below 0.1.
Compound `CC(C)c1sc(-c2ccc(Cl)cc2)c(-c2ccc(F)cc2)c1/C=C/[C@@H](O)C[C@@H](O)CC(=O)[O-].[Na+]` yielded a 50% inhibitory concentration (IC50) in assay [1] of 21 nM. For the same compound, the ED50 in the assay with Rattus norvegicus [2] is 0.64 mg/kg. Also, the Relative potency is 55 in assay [3] and 6.3 in the assay with Rattus norvegicus [4].
In the case of `CC(C)c1sc(-c2ccccc2)c(-c2cccc(F)c2)c1/C=C/[C@@H](O)C[C@@H](O)CC(=O)O`, the concentration for half-maximal inhibition (IC50) in assay [1] stood at 49 nM. Also, the Relative potency in assay [3] came to 23.
For the compound `CCCCCCCCc1c(-c2ccccc2)sc(C(C)C)c1/C=C/[C@@H](O)C[C@@H](O)CC(=O)O`, the IC50 in assay [1] was above 10000 nM. Besides, the Relative potency in assay [3] is below 0.1.
On to `CC(C)c1sc(-c2ccccc2)c(C2CCCCC2)c1/C=C/[C@@H](O)C[C@@H](O)CC(=O)[O-].[Na+]`, for which the IC50 in assay [1] worked out at 202 nM. In the assay with Rattus norvegicus [2], this compound had an ED50 of 0.57 mg/kg. Further, the Relative potency in assay [3] was 5.7; in the assay with Rattus norvegicus [4], 7.1.
For the compound `CC(C)c1sc(-c2ccccc2)c(-c2cccs2)c1/C=C/[C@@H](O)C[C@@H](O)CC(=O)O`, the half-maximal inhibitory concentration (IC50) in assay [1] turned out to be 1420 nM. Besides, the Relative potency in assay [3] came out at 0.8.
`CC(C)=Cc1sc(C(C)C)c(/C=C/[C@@H](O)C[C@@H](O)CC(=O)[O-])c1-c1ccc(F)cc1.[Na+]`: in assay [1], the IC50 worked out at 15 nM. In the assay on Rattus norvegicus [2], this compound displayed an ED50 of 0.11 mg/kg. Moreover, the Relative potency in assay [3] came out at 77; in the assay with Rattus norvegicus [4], 37.
For the compound `COc1ccc(-c2c(-c3ccccc3)sc(C(C)C)c2/C=C/[C@@H](O)C[C@@H](O)CC(=O)O)cc1`, the IC50 in assay [1] was determined as 2430 nM. Moreover, the Relative potency in assay [3] worked out at 0.5.
Regarding `COc1ccc(-c2sc(C(C)C)c(/C=C/[C@@H](O)C[C@@H](O)CC(=O)[O-])c2-c2ccc(F)cc2)cc1.[Na+]`, in assay [1], the IC50 was 6.3 nM. The same compound came in with an ED50 with Rattus norvegicus [2] of 0.15 mg/kg. In addition, the results for the Relative potency (in assay [3]; with Rattus norvegicus [4]) were 183 and 27, respectively.
Turning to `CC(C)=Cc1c(-c2ccccc2)sc(C(C)C)c1/C=C/[C@@H](O)C[C@@H](O)CC(=O)O`, the IC50 in assay [1] is 1000 nM. This compound came in with a Relative potency in assay [3] of 1.2.
Consider `CC[C@H](C)C(=O)O[C@H]1CCC=C2C=C[C@H](C)[C@H](CC[C@@H]3C[C@@H](O)CC(=O)O3)[C@H]21` [MEVASTATIN], for which inhibition in assay [1] was half-maximal at 1150 nM (IC50). For the same compound, the ED50 in the assay with Rattus norvegicus [2] worked out at 4.02 mg/kg. Further, the Relative potency (in assay [3]; with Rattus norvegicus [4]) was 1 in each case.
For `CC(C)c1sc(-c2ccccc2)c(-c2ccc(F)cc2)c1/C=C/[C@@H](O)C[C@@H](O)CC(=O)[O-].[Na+]`, in assay [1], the midpoint of inhibition, the IC50, lay at 4.4 nM. In the assay with Rattus norvegicus [2], this compound registered an ED50 of 0.11 mg/kg. Moreover, the Relative potency in assay [3] stood at 261; with Rattus norvegicus [4], 37.
In assay [1], `CC(C)c1sc(-c2ccccc2)c(-c2ccccc2F)c1/C=C/[C@@H](O)C[C@@H](O)CC(=O)O` gave an IC50 of 233 nM. Also, the Relative potency in assay [3] was 4.9.
With `CC(C)c1sc(C(C)C)c(-c2ccc(F)cc2)c1/C=C/[C@@H](O)C[C@@H](O)CC(=O)[O-].[Na+]`, the IC50 in assay [1] was found to be 26 nM. In addition, in the assay on Rattus norvegicus [2], the 50% effect level (ED50) was put at a dose of 0.08 mg/kg. Besides, the Relative potency stood at 44 in assay [3] and 50 with Rattus norvegicus [4].
In assay [1], `CC(C)c1sc(-c2ccccc2)c(-c2cccc(C(F)(F)F)c2)c1/C=C/[C@@H](O)C[C@@H](O)CC(=O)O` showed an IC50 of 2980 nM. This compound gave a Relative potency in assay [3] of 0.4.
On to `Cc1sc(C(C)C)c(/C=C/[C@@H](O)C[C@@H](O)CC(=O)[O-])c1-c1ccccc1.[Na+]`, for which, in assay [1], the IC50 worked out at 94 nM. Also, the ED50 in the assay on Rattus norvegicus [2] amounted to 0.19 mg/kg. Moreover, the Relative potency in assay [3] was determined as 12; in the assay on Rattus norvegicus [4], 21.
